Test results published in patent US7138361B2, “Herbicidal heterocycles” (E. I. du Pont de Nemours and Company, priority 2000, dated 2006).

Assays:
Experiment in all cases: Test C postemergence
Assay type in all cases: in vivo
[1] = test system: cocklebur (Xanthium strumarium)
Outline: (§1)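 Compounds in non-phytotoxic solvent with surfactant applied preemergence to planted seeds and postemergence to plants at 1- to 4-leaf stage (2–18 cm). Kept in greenhouse 12–14 days, then visually rated against controls on a 0 (no effect) to 100 (complete control) scale.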

kochia (Kochia scoparia) = test system: kochia (Kochia scoparia)
Outline: as §1

[2] = test system: johnsongrass (Sorghum halepense)
Outline: as §1

soybean (Glycine max) = test system: soybean (Glycine max)
Outline: as §1

[3] = test system: pigweed (Amaranthus retroflexus)
Outline: as §1

[4] = test system: common ragweed (Ambrosia elatior)
Outline: as §1

[5] = test system: crabgrass (Digitaria sanguinalis)
Outline: as §1

[6] = test system: woolly cupgrass (Eriochloa villosa)
Outline: as §1

[7] = Rate 250 g/ha, scale 0 to 100 (0 no effect, 100 complete control)
[8] = Rate 125 g/ha, scale 0 to 100, 0 no effect, 100 complete control
[9] = Rate 500 g/ha, scale 0 to 100 (0 no effect, 100 complete control)

Compound | Plant response rating, Cocklebur [1, 7] | Plant response rating, Kochia (kochia (Kochia scoparia); [7]) | Plant response rating, Johnsongrass [2, 7] | Plant response rating, Soybean (soybean (Glycine max); [7]) | Plant response rating, Pigweed [3, 7] | Plant response rating, Crabgrass [5, 7] | Plant response rating, Cupgrass, Woolly [6, 7] | Plant response rating, Cocklebur ([1]; Rate 62 g/ha, scale 0 to 100) | Plant response rating, Cocklebur [1, 9] | Plant response rating, Kochia (kochia (Kochia scoparia); Rate 62 g/ha, scale 0 to 100) | Plant response rating, Kochia (kochia (Kochia scoparia); [9]) | Plant response rating, Johnsongrass ([2]; Rate 62 g/ha, scale 0 to 100) | Plant response rating, Johnsongrass [2, 9] | Plant response rating, Soybean (soybean (Glycine max); Rate 62 g/ha, scale 0 to 100) | Plant response rating, Soybean (soybean (Glycine max); [9]) | Plant response rating, Pigweed ([3]; Rate 62 g/ha, scale 0 to 100) | Plant response rating, Pigweed [3, 9] | Plant response rating, Crabgrass ([5]; Rate 62 g/ha, scale 0 to 100) | Plant response rating, Crabgrass [5, 9] | Plant response rating, Cupgrass, Woolly [6, 9] | other results
CCC(C)c1ccn(C2SCN(c3cccc(C(F)(F)F)c3)C2=O)n1 (stereo not shown) [Compound 20] | 60 | 70 | 80 | 20 | 80 | 0 | 0 | – | – | – | – | – | – | – | – | – | – | – | – | – | Plant response rating, Kochia (kochia (Kochia scoparia); [8]): 70; Plant response rating, Johnsongrass [2, 8]: 0; Plant response rating, Soybean (soybean (Glycine max); [8]): 20; Plant response rating, Pigweed [3, 8]: 70; Plant response rating, Ragweed, Common [4, 8]: 30; Plant response rating, Ragweed, Common [4, 7]: 30; Plant response rating, Crabgrass [5, 8]: 0; Plant response rating, Cupgrass, Woolly [6, 8]: 0
COc1cc(N2CCC(n3ccc(C(C)C)n3)C2=O)ccc1Cl (stereo not shown) [Compound 120] | 80 | 90 | 0 | 60 | 60 | 40 | 0 | 0 | 90 | 50 | 90 | 0 | 0 | 30 | 60 | 0 | 90 | 0 | 90 | 0 | Plant response rating, Johnsongrass ([2]; rate not given, scale 0 to 100): 0; Plant response rating, Cupgrass, Woolly ([6]; Rate 62 g/ha, scale 0 to 100): 0
CC(C)(C)c1ccn(C2SCN(c3cccc(OC(F)(F)F)c3)C2=O)n1 (stereo not shown) [Compound 30] | 30 | 70 | 0 | 0 | 90 | 30 | 40 | – | 50 | – | 90 | – | 90 | – | 0 | – | 100 | – | 90 | 80 | Plant response rating, Cocklebur [1, 8]: 30; Plant response rating, Kochia (kochia (Kochia scoparia); [8]): 70; Plant response rating, Johnsongrass [2, 8]: 0; Plant response rating, Soybean (soybean (Glycine max); [8]): 0; Plant response rating, Pigweed [3, 8]: 80; Plant response rating, Crabgrass [5, 8]: 30; Plant response rating, Cupgrass, Woolly [6, 8]: 30
CCCOc1cc(N2CCC(n3ccc(C(C)(C)C)n3)C2=O)ccc1C (stereo not shown) [Compound 107] | 30 | 80 | 0 | 20 | 55 | 0 | 0 | 0 | 80 | 70 | 85 | 0 | 0 | 0 | 25 | 50 | 90 | 0 | 20 | 0 | Plant response rating, Johnsongrass ([2]; rate not given, scale 0 to 100): 0; Plant response rating, Ragweed, Common [4, 9]: 50; Plant response rating, Cupgrass, Woolly ([6]; Rate 62 g/ha, scale 0 to 100): 0
CCC(C)c1ccn(C2SCN(c3cccc(OC(F)(F)F)c3)C2=O)n1 (stereo not shown) [Compound 40] | 0 | 60 | 20 | 0 | 50 | 0 | 0 | 0 | 0 | 20 | 70 | 0 | 30 | 0 | 0 | 0 | 50 | 0 | 0 | 0 | Plant response rating, Cocklebur [1, 8]: 0; Plant response rating, Kochia (kochia (Kochia scoparia); [8]): 50; Plant response rating, Johnsongrass [2, 8]: 0; Plant response rating, Soybean (soybean (Glycine max); [8]): 0; Plant response rating, Pigweed [3, 8]: 0; Plant response rating, Ragweed, Common ([4]; Rate 62 g/ha, scale 0 to 100): 0; Plant response rating, Ragweed, Common [4, 8]: 0; Plant response rating, Ragweed, Common [4, 7]: 30; Plant response rating, Ragweed, Common [4, 9]: 40; Plant response rating, Crabgrass [5, 8]: 0; Plant response rating, Cupgrass, Woolly ([6]; Rate 62 g/ha, scale 0 to 100): 0; Plant response rating, Cupgrass, Woolly [6, 8]: 0
Cc1ccc(N2CCC(n3ccc(C(C)(C)C)n3)C2=O)cc1I (stereo not shown) [Compound 122] | 40 | 100 | 0 | 50 | 100 | 0 | 20 | 20 | 70 | 90 | 100 | 0 | 0 | 40 | 60 | 40 | 100 | 0 | 0 | 20 | Plant response rating, Johnsongrass ([2]; rate not given, scale 0 to 100): 0; Plant response rating, Cupgrass, Woolly ([6]; Rate 62 g/ha, scale 0 to 100): 0
CCCC(C)c1ccn(C2CCN(c3ccc(Cl)c(OC)c3)C2=O)n1 (stereo not shown) [Compound 121] | 20 | 70 | 0 | 60 | 70 | 40 | 30 | 0 | 40 | 70 | 90 | 0 | 0 | 50 | 70 | 20 | 90 | 0 | 60 | 60 | Plant response rating, Johnsongrass ([2]; rate not given, scale 0 to 100): 0; Plant response rating, Cupgrass, Woolly ([6]; Rate 62 g/ha, scale 0 to 100): 0
